Measurements as given in patent US20210330611A1, “THERAPY FOR NEUROLOGICAL DISEASES/DISORDERS” (priority 2020, published 2021).
Where “and” joins values, the source holds several entries; their conditions need not be identical. Identical values can stand only once. Counter-ions that a name gives are not always drawn. Like-named read-outs stand apart in the source and are kept apart here.

What was measured:
[1] = test system: fibrin-induced microglia activation; assay: Image-based assay of fibrin-induced microglia activation (HTS and dose response); assay type: cell-based, rat; settings: for inhibition at 10 µM / Fibrin % inhibition: primary microglia HTS, fibrin stimulation; for inhibition at 10 µM: read-out: Fibrin % inhibition
primary rat microglia [2] = assay: Cell toxicity (dead cells, size <150 μm2) in LPS assay; settings: primary microglia HTS, LPS stimulation
[3] = test system: fibrin- and LPS-induced microglia activation; assay: cells; assay type: cell-based, rat
primary rat microglia [4] = assay: Cell toxicity (dead cells, size <150 μm2) in coated fibrin (cFib) assay; settings: primary microglia HTS, fibrin stimulation;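 further: share of dead cells sized under 150 µm2 at 10 µM in fibrin-stimulated microglia HTS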
[5] = test system: LPS-induced microglia activation; assay: Image-based assay of LPS-induced microglia activation (HTS and dose response); assay type: cell-based, rat; settings: for inhibition at 10 µM: 48 h, read-out: LPS % inhibition; for inhibition at 10 µM / LPS % inhibition: primary microglia HTS, LPS stimulation
[6] = Rattus norvegicus, Microglia, increased cell size (>800 μm^2) as marker of activation
[7] = decreased size (<150 μm^2) as marker of toxicity
[8] = quadrant by fibrin and LPS inhibition in HTS of 1907 compounds
[9] = Rattus norvegicus, Microglia, activation = cell size >800 μm2
[10] = activation = cell size >800 μm2

| SMILES | IC50 ([1]; Rattus norvegicus, Microglia, Table 7, read-out: fib_IC50) [nM] | inhibition at 10 µM [1, 6] [%] | LPS % cell toxicity (primary rat microglia [2]; [7]) [%] | Quadrant (FIG. 5b) ([3]; Table 2, screen at 10 μM) | Quadrant (FIG. 5b) [3, 8] | Fibrin % cell toxicity (primary rat microglia [4]; [7]) | inhibition at 10 µM [5, 6] [%] | IC50 ([5]; Rattus norvegicus, Microglia, Table 7, read-out: LPS_IC50) [nM] | inhibition at 10 µM [1, 9] [%] | LPS % cell toxicity (primary rat microglia [2]; toxicity = cell size <150 μm2) [%] | Fibrin % cell toxicity (primary rat microglia [4]; toxicity = cell size <150 μm2) [%] | inhibition at 10 µM [5, 9] [%] | Fibrin % inhibition [1, 10] [%] | LPS % inhibition [5, 10] [%] |
| --- | --- | --- | --- | --- | --- | --- | --- | --- | --- | --- | --- | --- | --- | --- |
| CC1(C)O[C@@H]2C[C@H]3[C@@H]4C[C@H](F)C5=CC(=O)CC[C@]5(C)[C@H]4[C@@H](O)C[C@]3(C)[C@]2(C(=O)CO)O1 [Flurandrenolide, reference compound] | 2 | 110 | 5 | Q2 | Q2 | 6% and 5% | 98 | 2 | – | – | – | – | – | – |
| CC(C(=O)O)c1ccc(-c2ccccc2)c(F)c1 (stereo not drawn) [Flurbiprofen] | – | – | – | – | Q4 | – | – | – | 17 | 0 | 0 | 33 | – | – |
| NP(N)(=O)NC(=O)c1ccc(F)cc1 [Flurofamide] | – | – | – | – | Q4 | – | – | – | 3 | 0 | 0 | -12 | – | – |
| FC(F)(F)COCC(F)(F)F [Flurothyl] | – | – | – | – | Q4 | – | – | – | – | 0 | 1 | – | 0 | 28 |
| C=COCC(F)(F)F [Fluroxene] | – | – | – | – | Q4 | – | – | – | -19 | 0 | 0 | 11 | – | – |
| C[C@]12CCC(=O)C(O)=C1CC[C@@H]1[C@@H]2CC[C@]2(C)C(=O)CC[C@@H]12 [Formestane] | – | – | – | – | Q4 | – | – | – | -6 | 0 | 1 | 10 | – | – |
| O=C(O)P(=O)(O)O [Foscarnet] | – | – | – | – | Q4 | – | – | – | 5 | 0 | 1 | 10 | – | – |
| O=C(O)c1ccccc1OP(=O)(O)O [Fosfosal] | – | – | – | – | Q4 | – | – | – | -29 | 1 | 0 | 16 | – | – |
| CCC(=O)O[C@@H](O[P@](=O)(CCCCc1ccccc1)CC(=O)N1C[C@H](C2CCCCC2)C[C@H]1C(=O)O)C(C)C [Fosinopril] | – | – | – | – | Q4 | – | – | – | -52 | 0 | 1 | -1 | – | – |
| C[C@@H]1O[C@@H]1P(=O)(O)O [Fosphomycin] | – | – | – | – | Q4 | – | – | – | – | 0 | 1 | – | 4 | 12 |
| O=C1OC(CN2CCOCC2)CN1/N=C/c1ccc([N+](=O)[O-])o1 (stereo not drawn) [Furaltadone] | – | – | – | – | Q4 | – | – | – | -60 | 0 | 1 | 0 | – | – |
| Oc1noc2c1CCNC2 [Gaboxadol] | – | – | – | – | Q4 | – | – | – | -43 | 0 | 0 | 3 | – | – |
| CC(O)CN1CCN(CC(=O)[O-])CCN(CC(=O)[O-])CCN(CC(=O)[O-])CC1.[Gd+3] (stereo not drawn) [Gadoteridol] | – | – | – | – | Q4 | – | – | – | – | 0 | 1 | – | −18 | 15 |
| CC[N+](CC)(CC)CCOc1cccc(OCC[N+](CC)(CC)CC)c1OCC[N+](CC)(CC)CC [Gallamine Triethiodide] | – | – | – | – | Q4 | – | – | – | -11 | 1 | 1 | 24 | – | – |
| O=C(O)c1cc(O)c(O)c(O)c1 [Gallic Acid] | – | – | – | – | Q4 | – | – | – | -32 | 0 | 0 | 10 | – | – |
| O=C(O)CCCc1ccccc1 [Gamma-Phenyl-Butyric Acid] | – | – | – | – | Q4 | – | – | – | -36 | 0 | 0 | 9 | – | – |
| CC(=O)[C@H]1CC[C@H]2[C@@H]3CC[C@H]4C[C@](C)(O)CC[C@]4(C)[C@H]3CC[C@]12C [Ganaxolone] | – | – | – | – | Q4 | – | – | – | -38 | 0 | 1 | 12 | – | – |
| Nc1nc(O)c2ncn(COC(CO)CO)c2n1 [Ganciclovir] | – | – | – | – | Q4 | – | – | – | -2 | 0 | 0 | 13 | – | – |

| SMILES | IC50 ([1]; Rattus norvegicus, Microglia, Table 7, read-out: fib_IC50) [nM] | inhibition at 10 µM [1, 6] [%] | LPS % cell toxicity (primary rat microglia [2]; [7]) [%] | Quadrant (FIG. 5b) ([3]; Table 2, screen at 10 μM) | Quadrant (FIG. 5b) [3, 8] | Fibrin % cell toxicity (primary rat microglia [4]; [7]) | inhibition at 10 µM [5, 6] [%] | IC50 ([5]; Rattus norvegicus, Microglia, Table 7, read-out: LPS_IC50) [nM] | inhibition at 10 µM [1, 9] [%] | LPS % cell toxicity (primary rat microglia [2]; toxicity = cell size <150 μm2) [%] | Fibrin % cell toxicity (primary rat microglia [4]; toxicity = cell size <150 μm2) [%] | inhibition at 10 µM [5, 9] [%] | Fibrin % inhibition [1, 10] [%] | LPS % inhibition [5, 10] [%] |
| --- | --- | --- | --- | --- | --- | --- | --- | --- | --- | --- | --- | --- | --- | --- |
| COc1c(N2CCNC(C)C2)c(F)cc2c(=O)c(C(=O)O)cn(C3CC3)c12 (stereo not drawn) [Gatifloxacin] | – | – | – | – | Q4 | – | – | – | -19 | 0 | 1 | 19 | – | – |
| Nc1ccn([C@@H]2O[C@H](CO)[C@@H](O)C2(F)F)c(=O)n1 [Gemcitabine] | – | – | – | – | Q4 | – | – | – | -31 | 0 | 1 | 0 | – | – |
| Cc1ccc(C)c(OCCCC(C)(C)C(=O)O)c1 [Gemfibrozil] | – | – | – | – | Q4 | – | – | – | -47 | 0 | 0 | 10 | – | – |
| CO/N=C1\CN(c2nc3c(cc2F)c(=O)c(C(=O)O)cn3C2CC2)CC1CN (stereo not drawn) [Gemifloxacin] | – | – | – | – | Q4 | – | – | – | -34 | 0 | 0 | 6 | – | – |
| Cc1ccc(S(=O)(=O)NC(=O)NN2CC3CCCC3C2)cc1 (stereo not drawn) [Gliclazide] | – | – | – | – | Q4 | – | – | – | 1 | 0 | 1 | 20 | – | – |
| O=C1O[C@H](CO)[C@@H](O)[C@H](O)[C@H]1O [Gluconolactone] | – | – | – | – | Q4 | – | – | – | -1 | 0 | 0 | 17 | – | – |
| Cl.N[C@H]1C(O)O[C@H](CO)[C@@H](O)[C@@H]1O (stereo partly drawn) [Glucosamine Hydrochloride] | – | – | – | – | Q4 | – | – | – | -2 | 0 | 1 | 19 | – | – |
| COc1ccccc1O [Guaiacol] | – | – | – | – | Q4 | – | – | – | -51 | 0 | 0 | 11 | – | – |
| COc1ccccc1OCC(O)CO (stereo not drawn) [Guaifenesin] | – | – | – | – | Q4 | – | – | – | -15 | 0 | 0 | 11 | – | – |
| N=C(N)N/N=C/c1c(Cl)cccc1Cl [Guanabenz Acetate] | – | – | – | – | Q4 | – | – | – | – | 0 | 0 | – | −46 | −2 |
| N=C(N)N/N=C/c1c(Cl)cccc1Cl [Guanabenz] | – | – | – | – | Q4 | – | – | – | -46 | 0 | 1 | – | – | −18 |
| N=C(N)NCC1COC2(CCCCC2)O1 (stereo not drawn) [Guanadrel] | – | – | – | – | Q4 | – | – | – | -1 | 0 | 1 | 5 | – | – |
| N=C(N)N [Guanidine] | – | – | – | – | Q4 | – | – | – | -32 | 0 | 0 | -1 | – | – |
| O=C(O)c1ccc(S(=O)(=O)N(Cl)Cl)cc1 [Halazone] | – | – | – | – | Q4 | – | – | – | -13 | 0 | 0 | 19 | – | – |
| CC1(C)O[C@@H]2C[C@H]3[C@@H]4CCC5=CC(=O)CC[C@]5(C)[C@@]4(F)[C@@H](O)C[C@]3(C)[C@]2(C(=O)CCl)O1 [Halcinonide] | – | 103 | 2 | – | Q2 | 8% | 95 | – | – | – | – | – | – | – |
| Clc1cc(Cl)c(OCC#CI)cc1Cl [Haloprogin] | – | 78 | 70 | – | Q2 | 42% | 106 | – | – | – | – | – | – | – |
| CC(N)CCCC(C)(C)O (stereo not drawn) [Heptaminol Hydrochloride] | – | – | – | – | Q4 | – | – | – | -19 | 0 | 1 | 13 | – | – |
| CC1(C)S[C@@H]2[C@H](N3C(=O)[C@@H](c4ccccc4)NC3(C)C)C(=O)N2[C@H]1C(=O)O [Hetacillin Potassium] | – | – | – | – | Q4 | – | – | – | -15 | 1 | 0 | 15 | – | – |
